Results published in patent US20230404980A1, “METHODS OF TREATING SPONDYLOARTHRITIS OR SYMPTOMS THEREOF” (UNIVERSITY HEALTH NETWORK, priority 2020, published 2023).

What was measured:
curdlan-treated SKG mice [1] = assay: Curdlan-treated SKG mouse model of SpA: clinical scores, histopathology, microCT; type: in vivo
Procedure: (§1) Methods: Curdlan (β-glucan) or MIF-plasmid (mini-circle) treated SKG mice (8-10 weeks) were used as SpA mouse models. The expression of MIF in serum or tissues was measured by ELISA, quantitative PCR (qPCR), western blotting, immunohistochemistry (IHC) and/or immunofluorescence (IF). MIF knockout (KO) SKG mice were generated as MIF deficiency mice. MIF inhibitor (MIF098) was used to block the function of MIF in SpA mouse models to assess the therapeutic or prophylactic effects in a curdlan-treated SpA mouse model. Populations of immunological cells were assessed by flow cytometry. Anti-Gr-1 monoclonal antibody (mAb) or isotype control mAb was used to block the function of neutrophils or monocytes. Clinical scores, histopathology and microCT imaging were used to assess the severity of inflammation in the various tissues of the mouse models.
#1. Animal model, treatments and clinical scoring: Female and male SKG mice (age 8-10 weeks) were injected with PBS, curdlan (3 mg/mouse, i.p.), MIF-plasmid (EEV, 5 μg/mouse, i.v., from systemic biosciences), or control-plasmid (5 μg/mouse, i.v., from systemic biosciences) to induce SpA phenotype and weekly observed the clinical manifestations of inflammation and NBFs over 8 weeks (n=10 mice/group). C57BL/6 and BALB/c mice (age 8-10 weeks) were also subjected to MIF- or control-plasmid injection to observe clinical symptoms. MIF- or control plasmid was administered by HDD tail vein injection as previously described (11). We also generated Mif−/− (KO) SKG mice by crossing SKG mice and BALB/c Mif KO mice (22).
(§2) After 1 or 4 weeks post-curdlan treatment, we injected MIF antagonist (MIF098; 40 mg/kg, twice/day, i.p.) (23) or control vehicle [PEG400 (Sigma, cat#91893) and HP-P-P-CD (Sigma, cat#C0926)] to assess the prophylactic and therapeutic effects of the MIF098 on the inflammation and NBFs in the SpA mouse model until 8 weeks post-curdlan treatment. Anti-mouse Gr-1 antibody (100 μg/mouse, Life Technologies) or isotype IgG monoclonal antibodies (100 μg/mouse, Life Technologies) were administered on day 3, 6, 9, 12 and 15 post-curdlan treatment.
(§3) Clinical scores for SpA-related manifestations were assessed based on severity scales (Table 1); arthritis, maximum 6 points; dermatitis, maximum 2 points; blepharitis, maximum 2 points). The scores were evaluated at least 2 independent scorers in a blinded fashion and final scores were the average of the observations. At the endpoint, ankle joints, spleen and lymph nodes (PLNs and MLNs) were dissected for FACS, one ankle was dissected prior to storage in RNA later for qPCR unless used for FACS, the other ankle was kept intact and fixed in 10% neutral buffered formalin for histopathological assessments. The upper tail spine, pelvis, eyes and ileum were dissected and fixed in 10% neutral buffered formalin for histopathology. For ankle digestion, skin was peeled off and toes (at distal phalanges) and tibia (˜0.5 cm above tibia) were cut off. After flushing bone marrow, the tissue was digested with RPMI culture media containing hyaluronidase and collagenase type VIII for 1 h at 37° C. in incubator. Following passing through 70 μm of cell strainer and RBC lysis treatment, cells were centrifuged and used for FACS analysis.
Ankle joints, tail spine, and pelvis were fixed in 10% neutral buffered formalin for at least 72 h, decalcified in 10% EDTA (BioShop) for 14-21 days and embedded in paraffin. Eyes and ileum were fixed in formalin for at least 72 h without decalcification. Serial sections (4 μm) were stained with hematoxylin and eosin (H&E; Fisher Scientific). To assess endochondral ossification, safranin O/ fast green staining was also applied to NBF in distal tibia as previously described (24, 25). For histological scores, multiple sections (three sections approximately 40-80 μm apart) per joint sample were evaluated by 2 independent scorers in a blinded fashion according to histological assessments as previously reported (11, 24). […]

curdlan-treated SKG mice [2] = assay: Flow cytometry of immune cell populations from curdlan-treated SKG mice; type: in vivo, mouse
Procedure: as §1, §2, §3
For all panels, single cell suspensions were first stained with a fixable live dead stain (L/D NIR, Invitrogen, cat#L10119) as directed by the manufacturers. Cells were blocked with FcX (BioLegend, cat#101320) or Monocyte Blocker (BioLegend, cat#426102) prior to staining with surface antibodies. For experiments in which transcription factors were stained, cells were fixed and permeabilized with True-Nuclear kit (BioLegend, cat#424401) as directed. For experiments in which cytokines were stained, cells were fixed with a PFA buffer and permeabilized with intracellular staining buffer (BioLegend, cat#420801 and cat#421002) as indicated. Brefeldin A (BioLegend, cat#420601) with or without PMA/ionomycin (BioLegend, cat#423302) were used for in vitro stimulations to detect intracellular cytokines. Data were acquired on LSR II or Canto II (BD) and analyzed with FlowJo (version 10.6, Becton Dickinson).

[3] = cited from earlier work
human Tregs = assay: Th17 acquisition assay in human Tregs and cytokine measurement; type: cell-based; settings: rhMIF 50 ng/ml, 12 days
Procedure: Human naïve CD4+ T cells and Tregs (CD4+CD25+CD127low) were isolated from PBMCs of healthy male controls without any history of back pain, arthritis, and joint injuries (age: 18-40, n=4 individuals in total) using the human naïve T cells isolation kit (STEM CELL, Cat #19555) and Treg isolation kit (STEM CELL, cat#18063), respectively. Isolated human Tregs (3×10^4 cells/well) were cultured in the complete IMDM culture media containing ImmunoCult™ Human CD3/CD28/CD2 T Cell Activator (25 μl/ml, STEMCELL, cat#10970), and rhIL-2 (100 IU/ml, BioLegend, cat#589102) alone or in combination with or without rhMIF (50 ng/ml, BioLegend, cat#599404), rhIL-1β (25 ng/ml, BioLegend, cat#579402) and rhIL-23 (100 ng/ml, BioLegend, cat#574102) for 12 days. Each culture media was replaced ever 2-3 days. The cells were used for further analysis.
Released cytokine in cell culture supernatant on day 12 was quantified using the LEGENDplex Human Th17 Cytokine Panel (BioLegend, cat#741032) according to the manufacturer's instructions.
For all panels, single cell suspensions were first stained with a fixable live dead stain (L/D NIR, Invitrogen, cat#L10119) as directed by the manufacturers. Cells were blocked with FcX (BioLegend, cat#101320) or Monocyte Blocker (BioLegend, cat#426102) prior to staining with surface antibodies. For experiments in which transcription factors were stained, cells were fixed and permeabilized with True-Nuclear kit (BioLegend, cat#424401) as directed. […] Data were acquired on LSR II or Canto II (BD) and analyzed with FlowJo (version 10.6, Becton Dickinson).
The concentration of MIF in SKG mice or culture supernatant media and the concentration of IL-17A in the human Tregs culture media were assessed by mouse MIF ELISA kit (LEGEND MAX™ Mouse MIF ELISA Kit, BioLegend, cat# 44107) and Human IL-17A ELISA kit (LEGEND MAX™ Human IL-17A ELISA Kit, BioLegend, cat# 433917) were used, respectively. Samples were analyzed according to the manufacture's instruction.

[4] = prophylactic: MIF098 40 mg/kg i.p. twice daily from 1 to 8 weeks post-curdlan, female SKG mice, vs CTL
[5] = SKG SpA mouse model, summary of Example 1
[6] = prophylactic MIF098, 8 weeks post-curdlan, vs CTL

In the case of `C=C1Cc2ccc(C)cc2C1Cc1cccc(C)c1` (stereo not shown) [MIF098], the “SpA clinical manifestations (colitis, psoriasis, arthritis in axial and peripheral joints)” value (curdlan-treated SKG mice [1]; SKG SpA mouse model, MIF blockade) is reported as “dramatically suppressed or attenuated”, the “inflammation in the ankle, tail spine, sacroiliac joints, and ileum (histology and histopathology scoring)” value (curdlan-treated SKG mice [1]; prophylactic, 8 weeks post-curdlan, vs CTL) is reported as “Lower severity of inflammation” and the “new bone formation (NBF), microCT imaging and histological assessments” value (curdlan-treated SKG mice [1]; prophylactic, distal tibia, 8 weeks post-curdlan, vs CTL) is reported as “did not display an evident NBF”. For the same molecule, the “severity of blepharitis (clinical score)” value (curdlan-treated SKG mice [1]; [4]) was “reduced severity”, the “severity of psoriasis-like dermatitis (clinical score)” value (curdlan-treated SKG mice [1]; [4]) was “reduced severity” and the “severity of arthritis (clinical score)” value (curdlan-treated SKG mice [1]; prophylactic: MIF098 40 mg/kg i.p. twice daily from 1 to 8 weeks post-curdlan, female SKG mice, vs vehicle control (CTL)) was “reduced severity”. The “severity of psoriasis-like dermatitis” value (curdlan-treated SKG mice [1]; therapeutic: MIF098 from 4 weeks to 8 weeks post-curdlan, female SKG mice, vs CTL) was “reduced the severity”, the “new bone formation (NBF), histological assessments” value (curdlan-treated SKG mice [1]; therapeutic: MIF098 from 4 weeks to 8 weeks post-curdlan, vs CTL) was “reduced” and the severity of arthritis (curdlan-treated SKG mice [1]; therapeutic: MIF098 injected from 4 weeks to 8 weeks post-curdlan, female SKG mice, vs CTL) was “reduced the severity”. The “populations of Th17” value (curdlan-treated SKG mice [2]; [5]) was “decreased populations of Th17”, the “regulatory T (Treg) cells” value (curdlan-treated SKG mice [2]; [5]) was “increased” and the “RORγt+Foxp3+CD4+ T cells” value (curdlan-treated SKG mice [2]; curdlan-treated SKG mice, 8 weeks post-curdlan, vs CTL) was “decreased”. The “frequency of ILC3s in PLNs” value (curdlan-treated SKG mice [2]; [6]) was “significantly deceased”, the “frequency of Th17 lineage cells in PLNs” value (curdlan-treated SKG mice [2]; [6]) was “significantly deceased” and the “percentage of Th17 lineage cells in spleen” value (curdlan-treated SKG mice [2]; [6]) was “no significant difference”. The “percentage of Tregs (PLNs)” value (curdlan-treated SKG mice [2]; [6]) was “significant increase”, the “percentage of Tregs in spleen” value (curdlan-treated SKG mice [2]; [6]) was “significant increase” and the “percentage of inflammatory macrophages in the ankle joints” value (curdlan-treated SKG mice [2]; [6]) was “no difference between groups”. For the same molecule, the “percentage of patrolling macrophages in the ankle joints” value (curdlan-treated SKG mice [2]; [6]) was “increase” and the ILC2s (curdlan-treated SKG mice [2]; prophylactic MIF098, curdlan-treated SKG mice, vs CTL) was “remarkably increased”.

In the case of `CC(C)C(=O)c1c(C(C)C)nn2ccccc12` [Ibudilast, 2-methyl-1-(2-propan-2-ylpyrazolo[1,5-a]pyridin-3-yl)propan-1-one], the “toxicity in clinical trials” value ([3]; clinical trials for asthma and multiple sclerosis) is given as “minimal toxicity” and the safety ([3]; single 30-mg dose followed by 14 days of 30 mg b.i.d, healthy adults) is given as “generally safe”.

B1: rhMIF: recombinant human MIF (BioLegend) used to stimulate human Tregs (protein, UniProt P14174 2-115, looked up)
Macrophage migration …: PMFIVNTNVPRASVPDGFLSELTQQLAQATGKPPQYIAVHVVPDQLMAFGGSSEPCALCSLHSIGKIGGAQNRSYSKLLCGLLAERLRISPDRVYINYYDMNAANVGWNNSTFA
For B1, the “release of IL-6” value (human Tregs) was “without increased release”, the “frequency of RORγt+CD4+ T cells from Tregs” value (human Tregs; in the presence of IL1β and IL23, vs without rhMIF) was “increased” and the “secretion of IL-17A into the culture media” value (human Tregs; vs control-treated Tregs) was “significantly higher”.
